# Reference: patent publication US9359308B2, “Pyrazine kinase inhibitors” (Portola Pharmaceuticals, Inc., priority 2011, dated 2016)
# Molecular target: T1, full length active recombinant SYK enzyme (Homo sapiens, UniProt P43405)
# T1 construct: full length active recombinant SYK enzyme (Millipore, Calif.); purchased Millipore
# Assay: Inhibition of Syk tyrosine phosphorylation activity (LANCE TR-FRET kinase assay)
# Assay type: biochemical
# Details: activity in the Syk assays, class symbols
# In short: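 1 nM full-length active recombinant SYK phosphorylated 550 nM biotin-DEEDYESP-OH with 100 μM ATP in 50 mM Tris pH 7.5, 5 mM MgCl2, 1 mM DTT and 3% DMSO for 1 h at room temperature. After EDTA quench, Eu-anti-phosphotyrosine/SA-APC TR-FRET was read after 1 h. IC50s came from non-linear regression.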
row,Compound,IC50
1,"CC[C@@H](Nc1cnc(C(N)=O)c(Nc2ccc(S(=O)(=O)N(C)C)cc2)n1)C(N)=O [Example 170, (R)-5-(1-amino-1-oxobutan-2-ylamino)-3-(4-(N,N-dimethylsulfamoyl)phenylamino)pyrazine-2-carboxamide]",10 to 100 nM
2,"COc1ccc(Nc2nc(N[C@H](CC3CC3)C(N)=O)cnc2C(N)=O)cc1OC [Example 171, (R)-5-(1-amino-3-cyclopropyl-1-oxopropan-2-ylamino)-3-(3,4-dimethoxyphenylamino)pyrazine-2-carboxamide]",1 to 10 nM
3,"Cc1ccc(Nc2nc(N[C@H](CC3CC3)C(N)=O)cnc2C(N)=O)cc1C [Example 172, (R)-5-(1-amino-3-cyclopropyl-1-oxopropan-2-ylamino)-3-(3,4-dimethylphenylamino)pyrazine-2-carboxamide]",1 to 10 nM
4,"CC[C@@H](Nc1cnc(C(N)=O)c(Nc2cnn(-c3ccccc3)c2)n1)C(N)=O [Example 173, (R)-5-(1-amino-1-oxobutan-2-ylamino)-3-(1-phenyl-1H-pyrazol-4-ylamino)pyrazine-2-carboxamide]",10 to 100 nM
5,"Cc1ccc(Nc2nc(N[C@H](CC3CC3)C(N)=O)cnc2C(N)=O)cc1 [Example 174, (R)-5-(1-amino-3-cyclopropyl-1-oxopropan-2-ylamino)-3-(p-tolylamino)pyrazine-2-carboxamide]",10 to 100 nM
6,"NC(=O)c1ncc(NC[C@@H](N)CC(F)F)nc1Nc1cccc(-c2ncccn2)c1 [Example 176, (S)-5-(2-amino-4,4-difluorobutylamino)-3-(3-(pyrimidin-2-yl)phenylamino)pyrazine-2-carboxamide]",10 to 100 nM
7,"CC[C@@H](Nc1cnc(C(N)=O)c(Nc2cncc(C)c2)n1)C(N)=O [Example 177, (R)-5-(1-amino-1-oxobutan-2-ylamino)-3-(5-methylpyridin-3-ylamino)pyrazine-2-carboxamide]",10 to 100 nM
8,"CC[C@@H](Nc1cnc(C(N)=O)c(Nc2ccnc(C)c2)n1)C(N)=O [Example 178, (R)-5-(1-amino-1-oxobutan-2-ylamino)-3-(2-methylpyridin-4-ylamino)pyrazine-2-carboxamide]",10 to 100 nM
9,"CC[C@@H](Nc1cnc(C(N)=O)c(Nc2cc(C)nc(C)c2)n1)C(N)=O [Example 179, (R)-5-(1-amino-1-oxobutan-2-ylamino)-3-(2,6-dimethylpyridin-4-ylamino)pyrazine-2-carboxamide]",10 to 100 nM
10,"CC(C)C[C@@H](Nc1cnc(C(N)=O)c(Nc2ccn(C)n2)n1)C(N)=O [Example 180, (R)-5-(1-amino-4-methyl-1-oxopentan-2-ylamino)-3-(1-methyl-1H-pyrazol-3-ylamino)pyrazine-2-carboxamide]",> 1000 nM
11,"CC[C@@H](Nc1cnc(C(N)=O)c(Nc2cccnc2)n1)C(N)=O [Example 181, (R)-5-(1-amino-1-oxobutan-2-ylamino)-3-(pyridin-3-ylamino)pyrazine-2-carboxamide]",10 to 100 nM
12,"CC[C@@H](Nc1cnc(C(N)=O)c(Nc2cncc(F)c2)n1)C(N)=O [Example 182, (R)-5-(1-amino-1-oxobutan-2-ylamino)-3-(5-fluoropyridin-3-ylamino)pyrazine-2-carboxamide]",10 to 100 nM
13,"CC(C)[C@@H](Nc1cnc(C(N)=O)c(Nc2ccc3cnccc3c2)n1)C(N)=O [Example 189, (R)-5-(1-amino-3-methyl-1-oxobutan-2-ylamino)-3-(isoquinolin-6-ylamino)pyrazine-2-carboxamide]",1 to 10 nM

# Other lines, results leading:
row,IC50,Compound
1,10 to 100 nM,"CS(=O)(=O)c1ccc(Nc2nc(N[C@@H]3CCCC(F)(F)[C@@H]3N)cnc2C(N)=O)cc1 [Example 167, 5-((1R,2R)-2-amino-3,3-difluorocyclohexylamino)-3-(4-(methylsulfonyl)phenylamino)pyrazine-2-carboxamide]"
2,10 to 100 nM,"COc1cc(Nc2nc(N[C@@H]3CCCC(F)(F)[C@@H]3N)cnc2C(N)=O)cc(OC)c1 [Example 168, 5-((1R,2R)-2-amino-3,3-difluorocyclohexylamino)-3-(3,5-dimethoxyphenylamino)pyrazine-2-carboxamide]"
3,1 to 10 nM,"Cc1ccc(Nc2nc(N[C@@H]3CCCC(F)(F)[C@@H]3N)cnc2C(N)=O)cc1C [Example 169, 5-((1R,2R)-2-amino-3,3-difluorocyclohexylamino)-3-(3,4-dimethylphenylamino)pyrazine-2-carboxamide]"
4,1 to 10 nM,"NC(=O)c1ncc(NC2(C(N)=O)CC2)nc1Nc1cnc2ccc(F)cc2c1 [Example 175, 5-(1-carbamoylcyclopropylamino)-3-(6-fluoroquinolin-3-ylamino)pyrazine-2-carboxamide]"
5,10 to 100 nM,"Cc1cccc(Nc2nc(N[C@H]3CC[C@@H](N)CC3)cnc2C(N)=O)c1 [Example 183, 5-((1s,4s)-4-aminocyclohexylamino)-3-(m-tolylamino)pyrazine-2-carboxamide]"
6,1 to 10 nM,"NC(=O)c1ncc(N[C@H]2CC[C@@H](N)CC2)nc1Nc1cccc(-c2ncccn2)c1 [Example 184, 5-((1s,4s)-4-aminocyclohexylamino)-3-(3-(pyrimidin-2-yl)phenylamino)pyrazine-2-carboxamide]"
7,10 to 100 nM,"NC(=O)c1ncc(N[C@H]2CC[C@@H](N)CC2)nc1Nc1cnc2ccccc2c1 [Example 185, 5-((1s,4s)-4-aminocyclohexylamino)-3-(quinolin-3-ylamino)pyrazine-2-carboxamide]"
8,10 to 100 nM,"Cn1cc(Nc2nc(N[C@@H]3CCCC[C@@H]3N)cnc2C(N)=O)cn1 [Example 186, 5-((1R,2S)-2-aminocyclohexylamino)-3-(1-methyl-1H-pyrazol-4-ylamino)pyrazine-2-carboxamide]"
9,1 to 10 nM,"NC(=O)c1ncc(N[C@H]2CC[C@@H](N)CC2)nc1Nc1ccc2ncccc2c1 [Example 187, 5-((1s,4s)-4-aminocyclohexylamino)-3-(quinolin-6-ylamino)pyrazine-2-carboxamide]"
10,1 to 10 nM,"NC(=O)c1ncc(NC2CCC(N)CC2)nc1Nc1cccc(-n2nccn2)c1 (stereo not shown) [Example 188, 3-(3-(2H-1,2,3-triazol-2-yl)phenylamino)-5-((1r,4r)-4-aminocyclohexylamino)pyrazine-2-carboxamide]"
11,1 to 10 nM,"NC(=O)c1ncc(N[C@@H](C(N)=O)C2CC2)nc1Nc1ccc2cnccc2c1 [Example 190, (R)-5-(2-amino-1-cyclopropyl-2-oxoethylamino)-3-(isoquinolin-6-ylamino)pyrazine-2-carboxamide]"
12,1 to 10 nM,"CC(C)(C)[C@@H](Nc1cnc(C(N)=O)c(Nc2cnc3ccccc3c2)n1)C(N)=O [Example 191, (R)-5-(1-amino-3,3-dimethyl-1-oxobutan-2-ylamino)-3-(quinolin-3-ylamino)pyrazine-2-carboxamide]"
13,1 to 10 nM,"CC(C)(C)[C@@H](Nc1cnc(C(N)=O)c(Nc2ccc3ncccc3c2)n1)C(N)=O [Example 192, (R)-5-(1-amino-3,3-dimethyl-1-oxobutan-2-ylamino)-3-(quinolin-6-ylamino)pyrazine-2-carboxamide]"
14,10 to 100 nM,"CC(C)[C@@H](Nc1cnc(C(N)=O)c(Nc2cnc3cccnc3c2)n1)C(N)=O [Example 193, (R)-3-(1,5-naphthyridin-3-ylamino)-5-(1-amino-3-methyl-1-oxobutan-2-ylamino)pyrazine-2-carboxamide]"
15,1 to 10 nM,"CC(C)[C@@H](Nc1cnc(C(N)=O)c(Nc2cnc3ccncc3c2)n1)C(N)=O [Example 194, (R)-3-(1,6-naphthyridin-3-ylamino)-5-(1-amino-3-methyl-1-oxobutan-2-ylamino)pyrazine-2-carboxamide]"
